Experimental data reported in the NIST ThermoML archive (doi:10.1021/je0340809).

Test: xn = mol fraction of the nth substance listed
Details: 101.3 kPa, Liquid

C=CN1CCCC1=O [N-vinylpyrrolidone] + O
Details	mass density, 318.15 K [kg/m3]	mass density, 328.15 K [kg/m3]	mass density, 338.15 K [kg/m3]	speed of sound, 318.15 K [m/s]	speed of sound, 328.15 K [m/s]	speed of sound, 338.15 K [m/s]	viscosity, 318.15 K [mPa·s]	viscosity, 328.15 K [mPa·s]	viscosity, 338.15 K [mPa·s]
x2 = 0.0557	–	1015.77	1006.93	–	1433	1406	–	2.221	1.807
x2 = 0.1591	–	1016.49	1007.56	–	1441.7	1413.8	–	2.128	1.736
x2 = 0.2543	–	1017.1	1008.1	–	1451.2	1422.3	–	2.042	1.668
x2 = 0.3503	–	1017.56	1008.51	–	1462.3	1432.4	–	1.983	1.624
x2 = 0.4525	–	1018.03	1008.92	–	1474.7	1444.1	–	1.975	1.621
x2 = 0.5028	–	1018.3	1009.15	–	1482.4	1451.3	–	1.993	1.639
x2 = 0.5539	–	1018.58	1009.4	–	1489.6	1458.3	–	2.025	1.667
x2 = 0.6546	–	1018.91	1009.7	–	1505.7	1474.6	–	2.096	1.73
x2 = 0.7505	–	1018	1008.9	–	1523.4	1493.7	–	2.103	1.739
x2 = 0.8519	–	1013.18	1004.69	–	1542.9	1517.9	2.249	1.876	1.557
x2 = 0.8751	1019.1	1011.04	1002.82	1579.4	1548.6	1525.2	2.115	1.763	1.466
x2 = 0.8852	1017.84	1009.94	1001.85	1580.1	1550.7	1528.2	2.046	1.705	1.42
x2 = 0.9001	1015.73	1008.09	1000.23	1580.9	1553.7	1532.8	1.929	1.609	1.34
x2 = 0.9251	1011.41	1004.31	996.917	1577.9	1556.2	1539.1	1.692	1.411	1.18
x2 = 0.9357	1009.25	1002.41	995.252	1575.3	1556.5	1541.5	1.576	1.314	1.1
x2 = 0.9554	1004.59	998.333	991.671	1567.9	1556.6	1545.5	1.326	1.108	0.931
x2 = 0.9649	1002.02	996.075	989.687	1562.9	1554.4	1547	1.191	0.995	0.84
x2 = 0.9749	999.05	993.467	987.393	1556.6	1552.6	1548.4	1.037	0.868	0.736
x2 = 0.9903	993.883	988.924	983.396	1544.4	1548.5	1550.2	0.776	0.652	0.56
